Reference: ChEMBL document CHEMBL1909046, “DrugMatrix in vitro pharmacology data”

Tests used:
[1] = biological target: T1, Caspase-1 (Homo sapiens, UniProt P29466); parameters: species or system Escherichia coli;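 also: Caspase-1 enzyme inhibition assay with a peptide substrate; in other assays of this panel Not Active means under 50% inhibition at 10 µM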
T1 sequence (P29466 whole entry): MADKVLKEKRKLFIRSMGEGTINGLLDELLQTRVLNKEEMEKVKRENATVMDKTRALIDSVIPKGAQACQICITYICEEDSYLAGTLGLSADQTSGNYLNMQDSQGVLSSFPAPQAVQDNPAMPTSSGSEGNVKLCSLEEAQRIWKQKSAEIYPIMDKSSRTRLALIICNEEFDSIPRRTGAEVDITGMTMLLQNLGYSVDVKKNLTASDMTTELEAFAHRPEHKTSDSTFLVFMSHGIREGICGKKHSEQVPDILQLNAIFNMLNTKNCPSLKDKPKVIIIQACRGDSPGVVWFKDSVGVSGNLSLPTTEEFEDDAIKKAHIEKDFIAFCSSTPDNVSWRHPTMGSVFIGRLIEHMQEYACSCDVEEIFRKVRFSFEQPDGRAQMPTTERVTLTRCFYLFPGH

[2] = DRUGMATRIX: Potassium Channel [KATP] radioligand binding (ligand: [3H] Glyburide); assay type: cell membranes, Membrane; conditions: hit-t15; Not Active = under 50% inhibition at 10 µM
[3] = biological target: Insulin receptor (Rattus norvegicus, UniProt P15127); assay type: cell membranes, Wistar, Liver, Membrane; also: in other assays of this panel Not Active means under 50% inhibition at 10 µM
Chain of Insulin receptor (P15127 27-759 limits assumed): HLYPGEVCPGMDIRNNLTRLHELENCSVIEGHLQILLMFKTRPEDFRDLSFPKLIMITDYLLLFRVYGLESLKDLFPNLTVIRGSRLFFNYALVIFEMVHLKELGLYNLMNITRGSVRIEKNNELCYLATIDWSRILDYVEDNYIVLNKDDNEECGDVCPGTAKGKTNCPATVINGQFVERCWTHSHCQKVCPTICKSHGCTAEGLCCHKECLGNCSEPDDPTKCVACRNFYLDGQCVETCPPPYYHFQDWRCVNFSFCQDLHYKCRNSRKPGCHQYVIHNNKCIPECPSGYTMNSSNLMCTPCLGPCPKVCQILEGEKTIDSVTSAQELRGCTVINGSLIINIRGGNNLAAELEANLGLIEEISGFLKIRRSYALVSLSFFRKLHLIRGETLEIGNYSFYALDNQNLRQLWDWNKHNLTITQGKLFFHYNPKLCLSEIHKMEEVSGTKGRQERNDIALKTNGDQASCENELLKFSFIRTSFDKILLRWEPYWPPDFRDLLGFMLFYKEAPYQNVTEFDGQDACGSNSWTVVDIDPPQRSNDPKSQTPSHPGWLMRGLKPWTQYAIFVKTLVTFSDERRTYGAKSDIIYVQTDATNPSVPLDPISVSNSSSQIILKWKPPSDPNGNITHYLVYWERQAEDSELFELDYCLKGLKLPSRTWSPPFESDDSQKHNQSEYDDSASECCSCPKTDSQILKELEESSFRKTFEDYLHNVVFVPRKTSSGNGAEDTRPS
Chain of Insulin receptor (P15127 764-1383 limits assumed): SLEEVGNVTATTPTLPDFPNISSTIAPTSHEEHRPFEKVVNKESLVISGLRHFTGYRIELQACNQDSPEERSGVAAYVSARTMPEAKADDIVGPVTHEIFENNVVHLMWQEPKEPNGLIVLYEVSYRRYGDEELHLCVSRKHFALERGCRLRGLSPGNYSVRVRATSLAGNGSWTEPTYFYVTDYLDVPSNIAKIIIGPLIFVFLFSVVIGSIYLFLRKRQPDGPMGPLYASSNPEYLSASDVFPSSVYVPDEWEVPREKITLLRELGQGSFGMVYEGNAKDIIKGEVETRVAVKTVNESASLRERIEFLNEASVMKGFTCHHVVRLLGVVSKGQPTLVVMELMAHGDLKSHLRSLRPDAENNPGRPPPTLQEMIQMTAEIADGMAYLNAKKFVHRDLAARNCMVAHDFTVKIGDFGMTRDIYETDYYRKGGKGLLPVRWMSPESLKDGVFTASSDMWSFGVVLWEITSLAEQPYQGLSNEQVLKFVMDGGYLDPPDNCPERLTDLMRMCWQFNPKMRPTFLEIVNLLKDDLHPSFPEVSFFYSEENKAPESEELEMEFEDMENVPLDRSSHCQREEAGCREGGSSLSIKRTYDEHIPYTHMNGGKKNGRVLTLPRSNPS

[4] = biological target: T2, Neuropeptide Y receptor type 2 (Homo sapiens, UniProt P49146); assay type: cell membranes, Membrane; conditions: kan-ts; also: in other assays of this panel Not Active means under 50% inhibition at 10 µM
T2 sequence (P49146 whole entry): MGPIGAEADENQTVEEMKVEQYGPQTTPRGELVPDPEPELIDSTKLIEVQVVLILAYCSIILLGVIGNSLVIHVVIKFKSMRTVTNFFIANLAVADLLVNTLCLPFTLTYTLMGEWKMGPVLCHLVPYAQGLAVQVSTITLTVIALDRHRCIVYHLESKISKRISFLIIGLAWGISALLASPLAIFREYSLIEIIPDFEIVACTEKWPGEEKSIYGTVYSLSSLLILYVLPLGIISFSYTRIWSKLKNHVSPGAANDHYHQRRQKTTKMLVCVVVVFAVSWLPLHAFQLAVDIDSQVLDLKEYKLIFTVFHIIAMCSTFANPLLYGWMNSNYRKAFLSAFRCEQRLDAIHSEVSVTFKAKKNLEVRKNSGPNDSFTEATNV

[5] = biological target: T3, Vasoactive intestinal polypeptide receptor 1 (Homo sapiens, UniProt P32241); assay type: cell membranes, Membrane; conditions: ht-29; also: in other assays of this panel Not Active means under 50% inhibition at 10 µM
T3 sequence (P32241 whole entry): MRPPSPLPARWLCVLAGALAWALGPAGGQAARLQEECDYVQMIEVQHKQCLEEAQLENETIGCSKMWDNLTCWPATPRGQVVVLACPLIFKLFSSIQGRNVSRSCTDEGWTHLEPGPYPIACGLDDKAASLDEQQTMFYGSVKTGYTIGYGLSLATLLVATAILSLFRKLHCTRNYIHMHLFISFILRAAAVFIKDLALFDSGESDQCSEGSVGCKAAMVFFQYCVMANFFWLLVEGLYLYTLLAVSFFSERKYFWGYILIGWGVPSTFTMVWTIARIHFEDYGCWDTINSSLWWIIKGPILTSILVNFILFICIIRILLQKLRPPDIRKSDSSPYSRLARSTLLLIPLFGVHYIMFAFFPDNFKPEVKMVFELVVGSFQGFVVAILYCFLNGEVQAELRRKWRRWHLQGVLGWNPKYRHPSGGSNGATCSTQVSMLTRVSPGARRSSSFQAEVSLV

[6] = biological target: Delta-type opioid receptor (Homo sapiens, UniProt P41143); assay type: cell membranes, HEK293, Membrane; conditions: hek293; also: in other assays of this panel Not Active means under 50% inhibition at 10 µM
Chain of Delta-type opioid receptor (P41143 whole entry): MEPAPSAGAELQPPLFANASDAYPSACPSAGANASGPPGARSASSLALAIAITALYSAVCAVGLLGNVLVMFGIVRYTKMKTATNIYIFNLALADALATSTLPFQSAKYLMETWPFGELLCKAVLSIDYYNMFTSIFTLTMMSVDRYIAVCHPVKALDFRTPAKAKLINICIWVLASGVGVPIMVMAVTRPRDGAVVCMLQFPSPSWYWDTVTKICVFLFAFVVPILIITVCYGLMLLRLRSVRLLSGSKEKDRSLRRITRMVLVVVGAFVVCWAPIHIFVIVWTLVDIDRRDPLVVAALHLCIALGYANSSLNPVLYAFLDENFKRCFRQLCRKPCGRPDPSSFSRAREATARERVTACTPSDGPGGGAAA

[7] = DRUGMATRIX: GABAA, Muscimol, Central radioligand binding (ligand: [3H] Muscimol); assay type: cell membranes, Rattus norvegicus, Wistar, Brain, Membrane; conditions: Not Active = under 50% inhibition at 10 µM
[8] = biological target: T4, Alpha-2C adrenergic receptor (Homo sapiens, UniProt P18825); assay: DRUGMATRIX: Adrenergic Alpha-2C radioligand binding (ligand: [3H] MK-912); assay type: cell membranes, Sf9, Membrane
T4 sequence (P18825 whole entry): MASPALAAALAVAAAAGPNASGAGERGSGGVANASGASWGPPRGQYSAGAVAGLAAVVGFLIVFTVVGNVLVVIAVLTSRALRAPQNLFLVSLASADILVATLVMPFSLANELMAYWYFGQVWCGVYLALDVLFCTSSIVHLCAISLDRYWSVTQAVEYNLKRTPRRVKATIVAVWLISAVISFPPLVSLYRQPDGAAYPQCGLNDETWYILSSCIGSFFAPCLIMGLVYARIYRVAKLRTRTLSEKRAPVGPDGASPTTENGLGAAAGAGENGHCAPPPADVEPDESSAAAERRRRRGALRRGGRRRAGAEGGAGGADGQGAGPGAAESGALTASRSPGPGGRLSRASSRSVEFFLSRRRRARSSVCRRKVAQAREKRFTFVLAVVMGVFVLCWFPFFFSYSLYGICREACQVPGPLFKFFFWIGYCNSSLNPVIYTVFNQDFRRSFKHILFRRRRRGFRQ

Compound	IC50 [1]	IC50 [2]	Ki [2]	IC50 [3]	IC50 [4]	IC50 [5]	IC50 [6]	IC50 [7]	Ki [7]	IC50 ([8]; sf9)	IC50 ([8]; read-out: IC50) [µM]	Ki ([8]; read-out: Ki) [µM]	IC50 [8] [µM]	Ki [1]	Ki [3]	Ki [4]	Ki [5]	Ki [6]	Ki ([8]; sf9)
Nc1ncn([C@@H]2O[C@H](CO)[C@@H](O)[C@H]2O)c(=O)n1 [AZACITIDINE]	Not Active	Not Active	Not Active	Not Active	Not Active	Not Active	Not Active	Not Active	Not Active	Not Active	–	–	–	–	–	–	–	–	–
C[C@](N)(Cc1ccc(O)c(O)c1)C(=O)O [METHYLDOPA]	Not Active	Not Active	Not Active	Not Active	Not Active	Not Active	Not Active	Not Active	Not Active	Not Active	–	–	–	–	–	–	–	–	–
O=C(CCCN1CC=C(n2c(=O)[nH]c3ccccc32)CC1)c1ccc(F)cc1 [DROPERIDOL]	Not Active	Not Active	Not Active	Not Active	Not Active	Not Active	Not Active	Not Active	Not Active	–	1.76	0.256	–	–	–	–	–	–	–
CN(C)CCCN1c2ccccc2Sc2ccccc21 [PROMAZINE]	Not Active	Not Active	Not Active	Not Active	Not Active	Not Active	Not Active	Not Active	Not Active	–	0.253	0.037	–	–	–	–	–	–	–
CN(C)c1nc(N(C)C)nc(N(C)C)n1 [ALTRETAMINE]	Not Active	Not Active	Not Active	Not Active	Not Active	Not Active	Not Active	Not Active	Not Active	Not Active	–	–	–	–	–	–	–	–	–
CC1CC(OC(=O)C(O)c2ccccc2)CC(C)(C)C1 (stereo not given) [CYCLANDELATE]	Not Active	Not Active	Not Active	Not Active	Not Active	Not Active	Not Active	Not Active	Not Active	Not Active	–	–	–	–	–	–	–	–	–
CCCN1C[C@H](CSC)C[C@@H]2c3cccc4[nH]cc(c34)C[C@H]21 [PERGOLIDE]	Not Active	Not Active	Not Active	Not Active	Not Active	Not Active	Not Active	Not Active	Not Active	–	–	0.205	1.41	–	–	–	–	–	–
c1ccc2c(c1)c1cccc3ccc4cccc2c4c31 [BENZO[E]PYRENE]	Not Active	Not Active	Not Active	Not Active	Not Active	Not Active	Not Active	Not Active	Not Active	Not Active	–	–	–	–	–	–	–	–	–
CC(C)[C@@]1(NC(=O)[C@@H]2C[C@@H]3c4cccc5[nH]cc(c45)C[C@H]3N(C)C2)O[C@@]2(O)[C@@H]3CCCN3C(=O)[C@H](Cc3ccccc3)N2C1=O.CS(=O)(=O)O [DIHYDROERGOCRISTINE MESYLATE]	Not Active	Not Active	Not Active	Not Active	Not Active	Not Active	Not Active	Not Active	Not Active	–	0.00865	0.00126	–	–	–	–	–	–	–
CC[C@@]1(O)C[C@H](O[C@H]2C[C@H](N(C)C)[C@H](O[C@H]3C[C@H](O)[C@H](O[C@H]4CCC(=O)[C@H](C)O4)[C@H](C)O3)[C@H](C)O2)c2c(cc3c(c2O)C(=O)c2c(O)cccc2C3=O)[C@H]1C(=O)OC [ACLARUBICIN]	Not Active	Not Active	Not Active	Not Active	Not Active	Not Active	Not Active	Not Active	Not Active	Not Active	–	–	–	–	–	–	–	–	–
CCn1cc(C(=O)O)c(=O)c2cc(F)c(N3CCNCC3)cc21 [NORFLOXACIN]	Not Active	Not Active	Not Active	Not Active	Not Active	Not Active	Not Active	Not Active	Not Active	Not Active	–	–	–	–	–	–	–	–	–
Cc1c(O)c(=O)ccn1C [DEFERIPRONE]	Not Active	Not Active	Not Active	Not Active	Not Active	Not Active	Not Active	Not Active	Not Active	Not Active	–	–	–	–	–	–	–	–	–
NC1=NC(=O)C(c2ccccc2)O1 (stereo not given) [PEMOLINE]	Not Active	Not Active	Not Active	Not Active	Not Active	Not Active	Not Active	Not Active	Not Active	Not Active	–	–	–	–	–	–	–	–	–
Sc1ncnc2nc[nH]c12 [MERCAPTOPURINE ANHYDROUS]	Not Active	Not Active	Not Active	Not Active	Not Active	Not Active	Not Active	Not Active	Not Active	Not Active	–	–	–	–	–	–	–	–	–
COCCc1ccc(OCC(O)CNC(C)C)cc1 (stereo not given) [METOPROLOL]	Not Active	Not Active	Not Active	Not Active	Not Active	Not Active	Not Active	Not Active	Not Active	Not Active	–	–	–	–	–	–	–	–	–
O=c1[nH]c(=O)n([C@H]2C[C@H](O)[C@@H](CO)O2)cc1I [IDOXURIDINE]	Not Active	Not Active	Not Active	Not Active	Not Active	Not Active	Not Active	Not Active	Not Active	Not Active	–	–	–	–	–	–	–	–	–
CNNCc1ccc(C(=O)NC(C)C)cc1 [PROCARBAZINE]	Not Active	Not Active	Not Active	Not Active	Not Active	Not Active	Not Active	Not Active	Not Active	Not Active	–	–	–	–	–	–	–	–	–
CC(C)C(=O)Nc1ccc([N+](=O)[O-])c(C(F)(F)F)c1 [FLUTAMIDE]	Not Active	Not Active	Not Active	Not Active	Not Active	Not Active	Not Active	Not Active	Not Active	Not Active	–	–	–	–	–	–	–	–	–
LEAD (II) ACETATE	Not Active	Not Active	Not Active	Not Active	Not Active	Not Active	Not Active	Not Active	Not Active	Not Active	–	–	–	Not Active	Not Active	Not Active	Not Active	Not Active	Not Active
C[C@H]1c2cccc(O)c2C(=O)C2=C(O)[C@]3(O)C(=O)C(C(N)=O)=C(O)[C@@H](N(C)C)[C@@H]3[C@@H](O)[C@@H]21.O [DOXYCYCLINE]	Not Active	Not Active	Not Active	Not Active	Not Active	Not Active	Not Active	Not Active	Not Active	Not Active	–	–	–	–	–	–	–	–	–
